The source made the active and inactive calls.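 Rule for the calls: active = EC50 at or below 10 µM, fitted or read by hand from inhibition at single concentrations; inactive = EC50 above 10 µM.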
Molecular target: 5-hydroxytryptamine receptor 1E (Homo sapiens) (UniProt P28566)
Assay: 5-HT1E receptor agonist potency, dose response, cell-based (AID 726)
Conditions: CHO 5-HT1E/Ga15 NFAT-bla, FRET reporter

Chain of 5-hydroxytryptamine receptor 1E (Homo sapiens) (P28566 whole entry, looked up): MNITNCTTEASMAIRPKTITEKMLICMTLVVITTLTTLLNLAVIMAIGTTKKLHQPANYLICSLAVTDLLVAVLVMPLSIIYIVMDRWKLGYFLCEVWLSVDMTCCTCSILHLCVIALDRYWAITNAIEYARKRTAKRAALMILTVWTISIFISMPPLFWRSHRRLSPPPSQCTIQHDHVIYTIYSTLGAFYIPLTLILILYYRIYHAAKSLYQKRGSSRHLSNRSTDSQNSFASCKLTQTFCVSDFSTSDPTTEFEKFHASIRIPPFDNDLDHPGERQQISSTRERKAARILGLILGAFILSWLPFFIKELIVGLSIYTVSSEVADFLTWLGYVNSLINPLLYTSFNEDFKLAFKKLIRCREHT

CCOC(=O)c1cc2ccc(OC(=O)c3ccco3)cc2oc1=O was tested. Which EC50 did it give?
The EC50 was 7500 nM.

With Cc1[nH]c2ccccc2c1C1=CCNCC1 as the molecule, how does the EC50 read?
The EC50 was 194 nM.

For CCCCc1ccc2[nH]cc(CCN)c2c1, which EC50 is on record?
Its EC50 is 11.3 nM.

For c1ccc2sc(C3CCCNC3)nc2c1 (centres undefined), which EC50 is on record?
The EC50 was 186 nM.

Which EC50 does the source give for CCOC(=O)C1=C(C)NC(=O)NC1c1ccc(OCC(=O)Nc2ccccc2)c(OC)c1 (centres undefined) here?
The EC50 was > 50000 nM (inactive).

How did the EC50 turn out when CCc1nn(C(C)C(=O)NCCN2CCN(c3cccc(C)c3C)CC2)c(=O)c2cc3occc3n12 (centres undefined) was run?
The EC50 was 2320 nM.

CCOC(=O)C1CCN(C(c2cccnc2)c2c(NC(=O)c3ccco3)sc(C)c2C)CC1 (centres undefined) was tested. Which EC50 did it give?
Its EC50 is > 50000 nM (inactive).

With COC(=O)CC(=O)Cc1nc(N)nc(Nc2ccc(C)c(C)c2)n1 as the molecule, how does the EC50 read?
The EC50 was > 50000 nM (inactive).

Which EC50 does the source give for COc1ccc(CN2CCN(c3ccccc3F)CC2)c(OC)c1 here?
The EC50 was > 50000 nM (inactive).

Which EC50 does the source give for CC1CN(c2nnnn2-c2ccccc2)CC(C)O1 (centres undefined) here?
The EC50 was > 50000 nM (inactive).

CN(C)CCCn1c(NC(=O)C2CCCCC2)nc2ccccc21 was tested. Which EC50 did it give?
The EC50 was 469 nM.

Which EC50 does the source give for CN(C)CCOC(=O)c1cn(Cc2ccccc2)c2ccccc12 here?
The EC50 was 493 nM.

Cc1[nH]c2c(Cl)cccc2c1CCN was tested. Which EC50 did it give?
Its EC50 is 677 nM.

How did the EC50 turn out when c1ccc(N2CCN(Cc3cn4cccnc4n3)CC2)cc1 was run?
Its EC50 is 1070 nM.

How did the EC50 turn out when O=C(O)C1CCCCC1C(=O)NCCc1c[nH]c2ccccc12 (centres undefined) was run?
Its EC50 is 765 nM.

How did the EC50 turn out when Cc1[nH]c2c(C(F)(F)F)cccc2c1CCN was run?
Its EC50 is 817 nM.

For CN1CC=C(c2c[nH]c3ccccc23)CC1, which EC50 is on record?
The EC50 was 6.78 nM.

How did the EC50 turn out when COc1cc(CN2CCN(c3cccc(C)c3C)CC2)cc(OC)c1O was run?
The EC50 was > 50000 nM (inactive).

Cn1c(-c2ccccc2)cnc1SCc1nc2ccccc2c(=O)[nH]1 was tested. Which EC50 did it give?
Its EC50 is > 50000 nM (inactive).

For CCOC(=O)c1oc2ccccc2c1NC(=O)c1cc(OC)cc(OC)c1, which EC50 is on record?
The EC50 was > 50000 nM (inactive).

For CNCCc1c[nH]c2ccccc12, which EC50 is on record?
The EC50 was 105 nM.

How did the EC50 turn out when CSc1nc2ccc(NC(=O)C3CCCO3)cc2s1 (centres undefined) was run?
Its EC50 is > 50000 nM (inactive).

For CCCCN(C)CCCNC(=O)Cn1c(=O)sc2ccccc21, which EC50 is on record?
Its EC50 is 3500 nM.

Which EC50 does the source give for Cn1cc(/C(Cc2ccccc2)=N\O)c2ccccc21 here?
The EC50 was > 50000 nM (inactive).

CN1CCN(/C(=N\O)c2nonc2N)CC1 was tested. Which EC50 did it give?
The EC50 was 1170 nM.

Which EC50 does the source give for Cc1cccc(NC(=O)C2CCCN(C(=O)Nc3ccccc3)C2)c1C (centres undefined) here?
Its EC50 is > 50000 nM (inactive).

Which EC50 does the source give for CCOC(=O)c1c(C)nc(-c2ccccc2)nc1NC(=O)CC here?
Its EC50 is > 50000 nM (inactive).

How did the EC50 turn out when Cc1noc(C)c1COc1ccc(C(=O)OC(C)C(=O)Nc2ccc(N3CCOCC3)cc2)cc1 (centres undefined) was run?
Its EC50 is > 50000 nM (inactive).

For Cc1cc(C(C)(C)C)cc(C)c1CC1=NCCN1, which EC50 is on record?
Its EC50 is 87 nM.

For CCCCN(CC)Cc1ccc(CNC(=O)Nc2ccc(OC)cc2OC)o1, which EC50 is on record?
Its EC50 is 1830 nM.

For CCN1CC=C(c2c[nH]c3ccccc23)CC1, which EC50 is on record?
Its EC50 is 23.9 nM.

O=S(=O)(c1cccc(Cl)c1)N1CCCC1 was tested. Which EC50 did it give?
The EC50 was > 50000 nM (inactive).

For NCCc1c[nH]c2ccc(F)cc12, which EC50 is on record?
The EC50 was 484 nM.

How did the EC50 turn out when Cc1c(CN2CCN(c3cccc(C(F)(F)F)c3)CC2)c(=O)n(-c2ccccc2)n1C was run?
Its EC50 is 1840 nM.

With O=C(COC(=O)CCC1CCCC1)Nc1ccc(Cl)cn1 as the molecule, how does the EC50 read?
Its EC50 is > 50000 nM (inactive).

How did the EC50 turn out when C1=C(c2c[nH]c3ccccc23)CCNC1 was run?
The EC50 was 15.7 nM.

Which EC50 does the source give for CCc1ccc(NC(=O)Cn2c(SC)nc3ccccc32)cc1 here?
The EC50 was > 50000 nM (inactive).

With O=C(NCc1ccccc1)NC1(C(=O)N2CCCC2)CCCCC1 as the molecule, how does the EC50 read?
The EC50 was > 50000 nM (inactive).

Cc1cccc(N2CCN(C(=O)Cc3c(C(=O)O)[nH]c4ccc(Cl)cc34)CC2)c1C was tested. Which EC50 did it give?
Its EC50 is > 50000 nM (inactive).

Which EC50 does the source give for COc1ccc(N(CC(=O)NC2CCCC2)C(=O)Cn2nnc(-c3ccc(C)cc3)n2)cc1OC here?
Its EC50 is > 50000 nM (inactive).

Which EC50 does the source give for CC[C@@H](CO)NC(=O)[C@@H]1C=C2c3cccc4c3c(cn4C)C[C@H]2N(C)C1 here?
Its EC50 is 37.5 nM.

How did the EC50 turn out when CCOC(=O)C1CCN(C(=O)Cc2c(C(=O)O)n(C)c3ccccc23)CC1 was run?
The EC50 was > 50000 nM (inactive).

How did the EC50 turn out when C[N+]1=C2CCCCCN2C(O)(c2ccccc2)C1 (centres undefined) was run?
The EC50 was 1330 nM.

Which EC50 does the source give for CN1CCN2c3ccccc3Cc3ccccc3C2C1 (centres undefined) here?
The EC50 was 37.8 nM.

For CC(CCc1ccccc1)NC(=O)CSc1nc(N)cc(N)n1 (centres undefined), which EC50 is on record?
Its EC50 is > 50000 nM (inactive).

Which EC50 does the source give for CC(=O)Nc1ccc(S(=O)(=O)N(C)c2ccc(O)cc2)cc1 here?
Its EC50 is > 50000 nM (inactive).

With O=C(Nc1cccc(-c2cn3ccsc3n2)c1)c1ccccc1 as the molecule, how does the EC50 read?
The EC50 was > 50000 nM (inactive).

Cc1cc(C(C)(C)C)c(O)c(C)c1CC1=NCCN1 was tested. Which EC50 did it give?
The EC50 was 99 nM.

With CCN(CC)c1nc(N2CCOCC2)c(C#N)c2c1CN(C)CC2 as the molecule, how does the EC50 read?
Its EC50 is 1750 nM.

Source: PubChem BioAssay AID726 (The Scripps Research Institute Molecular Screening Center, 2007)
